In BindingDB's records for patent US20250313563 (The Broad Institute, 2025):
Several values for one entry are separate records, joined by “and”; a condition that tells them apart may be missing. Equal values may be shown once.

Columns and labels:
[1] = biological target: Glycogen synthase kinase-3 beta (Homo sapiens, UniProt P49841); assay: TR-FRET Assay
Method in brief: (§1)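 Enzyme and test compound were first incubated together for 30 minutes in assay buffer. The kinase reaction followed and was stopped with EDTA. The pSer641 signal was read by time-resolved FRET.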

[2] = biological target: Glycogen synthase kinase-3 alpha (Homo sapiens, UniProt P49840); assay: TR-FRET Assay
Method in brief: as §1

Glycogen synthase kinase-3 alpha, sequence (P49840 whole entry): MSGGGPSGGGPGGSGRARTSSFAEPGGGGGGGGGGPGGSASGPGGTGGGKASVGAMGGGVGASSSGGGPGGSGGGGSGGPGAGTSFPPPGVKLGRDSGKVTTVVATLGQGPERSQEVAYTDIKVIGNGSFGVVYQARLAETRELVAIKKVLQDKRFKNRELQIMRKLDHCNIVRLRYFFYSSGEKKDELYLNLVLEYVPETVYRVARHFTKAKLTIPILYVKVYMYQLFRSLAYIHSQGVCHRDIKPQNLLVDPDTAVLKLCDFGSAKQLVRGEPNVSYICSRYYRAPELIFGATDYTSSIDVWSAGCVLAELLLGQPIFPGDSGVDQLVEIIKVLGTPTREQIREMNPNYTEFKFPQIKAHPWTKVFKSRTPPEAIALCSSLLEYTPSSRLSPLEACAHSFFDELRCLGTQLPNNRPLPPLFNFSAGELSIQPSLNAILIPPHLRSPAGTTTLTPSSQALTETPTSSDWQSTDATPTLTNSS
Glycogen synthase kinase-3 beta, sequence (P49841 whole entry): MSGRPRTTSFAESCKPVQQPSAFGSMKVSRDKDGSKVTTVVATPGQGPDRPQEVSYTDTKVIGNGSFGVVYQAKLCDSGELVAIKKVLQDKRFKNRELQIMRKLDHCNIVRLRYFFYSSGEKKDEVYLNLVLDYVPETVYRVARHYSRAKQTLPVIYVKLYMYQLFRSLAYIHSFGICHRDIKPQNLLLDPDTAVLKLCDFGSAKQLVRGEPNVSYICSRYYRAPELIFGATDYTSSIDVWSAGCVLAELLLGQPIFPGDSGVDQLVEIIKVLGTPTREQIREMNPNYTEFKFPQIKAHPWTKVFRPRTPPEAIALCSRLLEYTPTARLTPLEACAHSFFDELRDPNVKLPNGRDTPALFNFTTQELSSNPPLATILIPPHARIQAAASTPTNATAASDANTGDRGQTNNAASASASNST

IC50 [1]	IC50 [2]	SMILES
< 100 nM and 1000 to 5000 nM	< 100 nM and 100 to 1000 nM	CC[C@@]1(c2cccc(-c3c(C)cncc3C)c2)C2=CN=NC2NC2=C1C(=O)NC(C)(C)C2 (some centres not stated) [US20250313563, Compound 948812]
100 to 1000 nM	< 100 nM	CCC1(c2cccc(-c3ccnc(C(F)(F)F)c3)c2)C2=C(CC(C)(C)CC2=O)NC2N=NC(C)=C21 (configuration not stated) [US20250313563, Compound 883989]
< 100 nM	< 100 nM	CCC1(c2cccc(S(=O)(=O)C(C)C)c2)C2=C(CC(C)(C)NC2=O)NC2N=NC(C)=C21 (configuration not stated) [US20250313563, Compound 947396]
> 5000 nM	1000 to 5000 nM	CC[C@]1(c2ccccc2)C2=CN=NC2NC2=C1C(=O)C[C@H](c1ccccc1)C2 (some centres not stated) [US20250313563, Compound 791265]
< 100 nM	< 100 nM	CC[C@]1(c2cccc(-c3ccncc3)c2)C2=C(CC(C)(C)CC2=O)NC2N=NC(C(F)(F)F)=C21 (some centres not stated) [US20250313563, Compound 917293]
< 100 nM	< 100 nM	CC[C@]1(c2cccc(S(C)(=O)=O)c2)C2=C(CC(C)(C)NC2=O)NC2N=NC(C(F)(F)F)=C21 (some centres not stated) [US20250313563, Compound 948418]
< 100 nM and 100 to 1000 nM	< 100 nM and 100 to 1000 nM	Cc1ccc(CC(=O)N2CC3(C2)CC2(CO3)C3=C(N=NC3)NC3=C2C(=O)CC(C)(C)C3)cc1 (configuration not stated) [US20250313563, Compound 947281]
1000 to 5000 nM	100 to 1000 nM	CC[C@@]1(c2cccc(N(C)c3ncccn3)c2)C2=C(CC(C)(C)NC2=O)NC2N=NC(Cl)=C21 (some centres not stated) [US20250313563, Compound 951618]
< 100 nM	< 100 nM	CCC1(c2cccc(N(C)C(C)=O)c2)C2=CN=NC2NC2=C1C(=O)CC(C)(C)C2 (configuration not stated) [US20250313563, Compound 801319]
> 5000 nM	1000 to 5000 nM	CC[C@]1(c2cccc(C)c2)C2=C(CC(C)(C)CC2=O)NC2N=NC(C(F)(F)F)=C21 (some centres not stated) [US20250313563, Compound 883872]
< 100 nM	100 to 1000 nM	CC(C)(C)CC1=C2C(N=N1)NC1=C(C(=O)CC(C)(C)C1)C21CCc2ccc(F)cc21 (configuration not stated) [US20250313563, Compound 784440]
< 100 nM	< 100 nM	CC1(C)CC(=O)C2=C(C1)NC1=C(CN=N1)C21COC2(CN(C(=O)c3ccccc3F)C2)C1 (configuration not stated) [US20250313563, Compound 947289]

More lines, now with the values behind:

SMILES	IC50 [1]	IC50 [2]
CC[C@@]1(c2cccc(C(F)(F)F)c2)C2=CN=NC2NC2=C1C(=O)N(Cc1ccccc1)CC2 (some centres not stated) [US20250313563, Compound 912006]	> 5000 nM	> 5000 nM
CC1N=NC2=C1C1(CCOCC1)C1=C(CC(C)(C)C(F)C1=O)N2 (configuration not stated) [US20250313563, Compound 912072]	100 to 1000 nM	100 to 1000 nM
CC[C@@]1(c2cccc(C(F)(F)F)c2)C2=CN=NC2NC2=C1C(=O)N(C)C[C@@H]2C (some centres not stated) [US20250313563, Compound 883981]	> 5000 nM	> 5000 nM
CCC1(c2cccc(-c3ccncc3C)c2)C2=C(CC(C)(C)NC2=O)NC2N=NC(C)=C21 (configuration not stated) [US20250313563, Compound 945599]	< 100 nM	< 100 nM
CC[C@]1(c2cccc(N(C)c3cccc(C)n3)c2)C2=CN=NC2NC2=C1C(=O)CC(C)(C)C2 (some centres not stated) [US20250313563, Compound 932644]	> 5000 nM	> 5000 nM
CC1(C)CC(=O)C2=C(C1)NC1=C(CN=N1)[C@]21COC2(CCC2)C1 [US20250313563, Compound 917128]	100 to 1000 nM	100 to 1000 nM
CC(C)c1nc(S(=O)(=O)N2CCC3(CC2)C2=C(N=NC2)NC2=C3C(=O)CC(C)(C)C2)cn1C [US20250313563, Compound 945663]	< 100 nM	< 100 nM
CC[C@@]1(c2cccc(C)c2)C2=CN=NC2NC2=C1C(=O)CC1(CCCC1)C2 (some centres not stated) [US20250313563, Compound 801312]	100 to 1000 nM	< 100 nM
COc1cccc(S(=O)(=O)N2CCCC3(CC2)C2=CN=NC2NC2=C3C(=O)CC(C)(C)C2)c1 (configuration not stated) [US20250313563, Compound 917140]	100 to 1000 nM	< 100 nM
